Like-named read-outs stand apart in the source and are kept apart here.

Holding throughout (type): cell-based
One experiment has as its system MM.1S cells. Briefly: Effect of the compound on MM.1S cell proliferation (MTS, 7 days). As to the method: MM.1S cells were cultured in 1640 medium supplemented with 10% fetal bovine serum, then collected and diluted to the desired cell concentration after 7 days of treatment. A total of 180 μL of cell suspension was added to each well in a 96-well cell plate, ensuring 20,000 cells per well. For the control group, 20 μL of 0.2% DMSO was added to each well. Compounds were diluted in a 5-step gradient from a 10 mM stock solution, and 20 μL of each dilution was added to the compound-containing wells (with a final DMSO concentration of 0.2%). The cells were incubated in a 37° C., 5% CO2 incubator for 7 days. Afterward, 20 μL of the MTS reagent (Promega, G5430) was added to each well, followed by incubation for 3-4 hours in a 37° C., 5% CO2 incubator. Absorbance at 490 nm was measured using a microplate reader, with 690 nm absorbance as the background. The final raw data was calculated as OD490-OD690. The compound inhibition rate was calculated using the formula: […]
The IC50 for the compound's proliferative inhibition was fitted using GraphPad Prism 5.0. The experiment was repeated three times, and the average and standard deviation were calculated using three parallel experiments per trial.

A further experiment relates to Mino cells. Briefly: Inhibition of cell proliferation of Mino cells (MTS, 3 days). As to the method:
Mino cells were cultured with RPMI-1640 medium supplemented with 15% fetal bovine serum, and collected. The cell concentration was diluted according to a 3-day treatment period, and 90 μL of the cell suspension was added to each well of a 96-well plate, resulting in 8000 cells per well. For control wells, 10 μL of DMSO at a final concentration of 0.2% was added. The compounds were diluted in a 5-fold gradient from a 10 mM stock solution, and 10 μL of each compound solution was added to the experimental wells (with a final DMSO concentration of 0.2%). The cells were incubated in a 37° C., 5% CO2 incubator for 3 days. After preparing the reaction mixture using the MTS reagent kit (Promega, G5430), 20 μL was added to each well, and the cells were incubated for 3-4 hours at 37° C., 5% CO2.
The absorbance at 490 nm was read using a microplate reader, with the absorbance at 690 nm used as the background. The final raw data was calculated as OD490-OD690. The inhibition rate of the compounds was calculated using the formula: Inhibition rate=(OD DMSO−OD compound)/(OD DMSO−OD blank)×100%. The IC50 values for cell proliferation inhibition of the compounds were fitted using GraphPad Prism 5.0. The experiment was repeated three times, with the average and standard deviation calculated from three parallel experiments each time.

In a further experiment the test system is MV-4-11 cells. The experiment is described as follows: Inhibition of MV-4-11 cell proliferation (MTS, 7 days). As to the method:
MV-4-11 cells were cultured in IMDM with 10% fetal bovine serum, collected, and diluted to the appropriate cell concentration for a 7-day treatment period. A 96-well plate was used, and 180 μL of cell suspension was added to each well, resulting in a cell count of 2,000 per well. For the control wells, 20 μL of DMSO at a final concentration of 0.2% was added. The compounds were diluted from a 10 mM stock solution in a five-fold gradient, and 20 μL was added to the compound wells (with a final DMSO concentration of 0.2%). The cells were incubated in a 37° C., 5% CO2 incubator for 7 days. After preparing the reaction solution using the MTS reagent kit (Promega, G5430), 20 μL was added to each well, and the cells were incubated in the incubator for 3-4 hours. The absorbance at 490 nm was measured using a microplate reader, with the absorbance at 690 nm as the background value. The final data was calculated as OD490-OD690. The inhibition rate of the compounds was calculated using the formula: […]
The IC50 values for proliferation inhibition were calculated using GraphPad Prism 5.0. The experiments were repeated three times, with three parallel experiments for each, and the mean and standard deviation were calculated.
The cell activity test results are shown in Table 3: A indicates IC50<1 μM, B indicates 1 µM≤IC50≤20 μM, and C indicates IC50>20 μM.

The mark [1] stands for this setting: Homo sapiens, MM1.S, 168 h, 7 days, MTS, Table 1, read-out: MM.1S Cells Inhibition Activity IC50.
Setting [2] is: Homo sapiens, MINO, 72 h, 3 days, MTS, Table 2, read-out: Mino Cells Inhibition Activity IC50.
Setting [3] is: Homo sapiens, MV4-11, 168 h, 7 days, MTS, Table 3, read-out: MV-4-11 Cells Inhibition Activity IC50.
Setting [4] is: 7 days, MTS, Table 1, read-out: MM.1S Cells Inhibition Activity IC50.
[5] abbreviates: 3 days, MTS, Table 2, read-out: Mino Cells Inhibition Activity IC50.
The mark [6] stands for this setting: 7 days, MTS, Table 3, read-out: MV-4-11 Cells Inhibition Activity IC50.
Setting [7] is: Homo sapiens, MM1.S, Table 4, read-out: Inhibitory Activity of Compounds on Cell Proliferation MM.1S IC50.
Setting [8] is: Homo sapiens, MINO, Table 4, read-out: Inhibitory Activity of Compounds on Cell Proliferation Mino IC50.
The mark [9] stands for this setting: Homo sapiens, MV4-11, Table 4, values in nM, read-out: Inhibitory Activity of Compounds on Cell Proliferation MV-4-11 IC50.

For the compound `O=C1CCC(N2C(=O)c3cccc(NCc4cnc(-c5ccc(OC6CC6)cc5)s4)c3C2=O)C(=O)N1` (stereo not shown) [Example 103, 4-(((2-(4-Cyclopropoxyphenyl)thiazol-5-yl)methyl)amino)-2-(2,6-Dioxopiperidine-3-yl)isoindoline-1,3-dione], the results for the IC50 in the experiment with MM.1S cells (setting [1]), in the experiment with Mino cells (setting [2]) and in the experiment with MV-4-11 cells (setting [3]) were less than 15 nM, more than 120 nM and 1000 to 20000 nM, respectively.
As to `Nc1cccc2c1C(=O)N(C1CCC(=O)NC1=O)C2=O` (stereo not shown) [Pomalidomide, reference compound], the IC50 was 30 to 150 nM with MM.1S cells (setting [1]); more than 120 nM in the experiment with Mino cells (setting [2]); more than 20000 nM in the experiment with MV-4-11 cells (setting [3]); more than 20000 nM in the experiment with MV-4-11 cells (Homo sapiens, MV4-11, positive compounds, read-out: IC50 in MV-4-11 acute leukemia cells).
Turning to `O=C1CCC(N2C(=O)c3cccc(NCc4cnc(-c5ccc(F)cc5)o4)c3C2=O)C(=O)N1` (stereo not shown) [Example 93, 2-(2,6-Dioxopiperidine-3-yl)-4-(((2-(4-Fluorophenyl)oxazol-5-yl)methyl)amino)isoindoline-1,3-dione], the IC50 in the experiment with MM.1S cells (setting [4]) was less than 15 nM; in the experiment with Mino cells (setting [5]), less than 60 nM; in the experiment with MV-4-11 cells (setting [6]), less than 1000 nM.
In the case of `O=C1CCC(N2C(=O)c3cccc(NCc4cnc(CN5CCOCC5)o4)c3C2=O)C(=O)N1` (stereo not shown) [Example 82], the results for the IC50 in the experiment on MM.1S cells (setting [1]), in the experiment with Mino cells (setting [2]) and in the experiment on MV-4-11 cells (setting [3]) were more than 150 nM, more than 120 nM and less than 1000 nM, respectively.
For `O=C1CCC(N2C(=O)c3cccc(NCc4cnc(-c5cccc(Cl)c5)o4)c3C2=O)C(=O)N1` (stereo not shown) [Example 63, 4-(((2-(3-Chlorophenyl)oxazol-5-yl)methyl)amino)-2-(2,6-Dioxopiperidin-3-yl)isoindolin-1,3-dione], the IC50 was 15 to 30 nM in the experiment with MM.1S cells (setting [1]), more than 120 nM in the experiment on Mino cells (setting [2]) and less than 1000 nM in the experiment with MV-4-11 cells (setting [3]).
In the case of `O=C1CCC(N2Cc3c(NCc4cnc(-c5ccc(OC(F)(F)F)cc5)o4)cccc3C2=O)C(=O)N1` (stereo not shown) [Prior Art Disclosed Compound-1, reference compound], the IC50 with MM.1S cells (setting [7]) was more than 20 nM; in the experiment on Mino cells (setting [8]), more than 4800 nM; in the experiment on MV-4-11 cells (setting [9]), more than 20000 nM.
As for `Cc1ccc(-c2ncc(CNc3cccc4c3C(=O)N(C3CCC(=O)NC3=O)C4=O)s2)cc1` (stereo not shown) [Example 29], the figures for the IC50 with MM.1S cells (setting [1]), in the experiment on Mino cells (setting [2]) and with MV-4-11 cells (setting [3]) were less than 15 nM, more than 120 nM and less than 1000 nM, respectively.
On to `CC1(C(=O)N2CCC(c3ncc(CNc4cccc5c4C(=O)N(C4CCC(=O)NC4=O)C5=O)o3)CC2)CCC1` (stereo not shown) [Example 1], for which the IC50 in the experiment with MM.1S cells (setting [1]) was less than 15 nM; in the experiment with Mino cells (setting [2]), less than 60 nM; in the experiment on MV-4-11 cells (setting [3]) it was 1000 to 20000 nM.
In the case of `O=C1CCC(N2C(=O)c3cccc(NCc4cnc(-c5ccccc5F)o4)c3C2=O)C(=O)N1` (stereo not shown) [Example 71, 2-(2,6-Dioxopiperidin-3-yl)-4-(((2-(2-Fluorophenyl)oxazol-5-yl)methyl)amino)isoindolin-1,3-dione], the IC50 with MM.1S cells (setting [1]) was less than 15 nM; with Mino cells (setting [2]), less than 60 nM; in the experiment on MV-4-11 cells (setting [3]), less than 1000 nM.
Take `O=C1CCC(N2C(=O)c3cccc(NCc4cnc(-c5ccccc5Cl)o4)c3C2=O)C(=O)N1` (stereo not shown) [Example 92, 4-(((2-(2-Chlorophenyl)oxazol-5-yl)methyl)amino)-2-(2,6-Dioxopiperidine-3-yl)isoindoline-1,3-dione]: the IC50 was less than 15 nM with MM.1S cells (setting [4]), more than 120 nM with Mino cells (setting [5]) and less than 1000 nM with MV-4-11 cells (setting [6]).
For `O=C1CCC(N2C(=O)c3cccc(NCc4cnc(-c5ccc(Cl)c(Cl)c5)o4)c3C2=O)C(=O)N1` (stereo not shown) [Example 73, 4-(((2-(3,4-Dichlorophenyl)oxazol-5-yl)methyl)amino)-2-(2,6-Dioxopiperidin-3-yl)isoindolin-1,3-dione], the IC50 with MM.1S cells (setting [1]) was 15 to 30 nM; with Mino cells (setting [2]) it was more than 120 nM; in the experiment with MV-4-11 cells (setting [3]), less than 1000 nM.
`O=C1CCC(N2C(=O)c3cccc(NCc4ncc(-c5ccc(F)cc5)o4)c3C2=O)C(=O)N1` (stereo not shown) [Example 72, 2-(2,6-Dioxopiperidin-3-yl)-4-(((5-(4-Fluorophenyl)oxazol-2-yl)methyl)amino)isoindolin-1,3-dione]: the figures for the IC50 in the experiment on MM.1S cells (setting [1]), with Mino cells (setting [2]) and in the experiment with MV-4-11 cells (setting [3]) were less than 15 nM, more than 120 nM and less than 1000 nM, respectively.
In the same order, the values of `O=C1CCC(N2C(=O)c3cccc(NCc4cnc(-c5ccc(Br)cc5)o4)c3C2=O)C(=O)N1` (stereo not shown) [Example 23] are less than 15 nM, more than 120 nM and less than 1000 nM.
For `O=C1CCC(N2C(=O)c3cccc(NCc4cnc(-c5ccc(Cl)nc5)o4)c3C2=O)C(=O)N1` (stereo not shown) [Example 44], the values for the IC50 with MM.1S cells (setting [1]), with Mino cells (setting [2]) and with MV-4-11 cells (setting [3]) were 30 to 150 nM, more than 120 nM and more than 20000 nM, respectively.
Consider `O=C1CCC(N2C(=O)c3cccc(NCc4cnc(-c5ccc(O[C@@H]6CCOC6)cc5)o4)c3C2=O)C(=O)N1` (stereo partly shown) [Example 54], for which the IC50 in the experiment with MM.1S cells (setting [1]) is less than 15 nM; in the experiment on Mino cells (setting [2]), less than 60 nM; in the experiment with MV-4-11 cells (setting [3]), less than 1000 nM.
For `Cc1cccc(-c2ncc(CNc3cccc4c3C(=O)N(C3CCC(=O)NC3=O)C4=O)o2)c1` (stereo not shown) [Example 20], the IC50 in the experiment with MM.1S cells (setting [1]) is less than 15 nM; in the experiment on Mino cells (setting [2]), less than 60 nM; with MV-4-11 cells (setting [3]) it was less than 1000 nM.
For the compound `CN(Cc1cnc(-c2ccc(Cl)cc2)o1)c1cccc2c1C(=O)N(C1CCC(=O)NC1=O)C2=O` (stereo not shown) [Example Ctrl-3, 4-(((2-(4-chlorophenyl)oxazol-5-yl)methyl)(methyl)amino)-2-(2,6-dioxopiperidin-3-yl)isoindoline-1,3-dione, reference compound], the IC50 in the experiment with MM.1S cells (setting [7]) is more than 30 nM; in the experiment with Mino cells (setting [8]), more than 120 nM; with MV-4-11 cells (Homo sapiens, MV4-11, Table 4, values in μM, read-out: Inhibitory Activity of Compounds on Cell Proliferation MV-4-11 IC50) it was 1000 to 20000 nM.
With `O=C1CCC(N2Cc3c(OCC4CCN(c5ccc(OC(F)(F)F)cc5)CC4)cccc3C2=O)C(=O)N1` (stereo not shown) [Prior Art Disclosed Compound-4, reference compound], the figures for the IC50 in the experiment on MM.1S cells (setting [7]), in the experiment on Mino cells (setting [8]) and with MV-4-11 cells (setting [9]) were more than 41 nM, 7500 nM and more than 10000 nM, respectively.
As for `CC(C)(C)C(=O)OCN1C(=O)CCC(N2C(=O)c3cccc(NCc4cnc(C5CCN(C(=O)C(C)(C)C)CC5)o4)c3C2=O)C1=O` (stereo not shown) [Example 41], the results for the IC50 in the experiment on MM.1S cells (setting [1]), in the experiment with Mino cells (setting [2]) and in the experiment with MV-4-11 cells (setting [3]) were 15 to 30 nM, more than 120 nM and 1000 to 20000 nM, respectively.
For `O=C1CCC(N2C(=O)c3cccc(NCc4cnc(-c5cc(Cl)ccc5Cl)o4)c3C2=O)C(=O)N1` (stereo not shown) [Example 77], the IC50 with MM.1S cells (setting [1]) is 30 to 150 nM; with Mino cells (setting [2]), more than 120 nM; with MV-4-11 cells (setting [3]), 1000 to 20000 nM.
In the case of `Cc1ccccc1-c1ncc(CNc2cccc3c2C(=O)N(C2CCC(=O)NC2=O)C3=O)o1` (stereo not shown) [Example 21], the IC50 is less than 15 nM with MM.1S cells (setting [1]), more than 120 nM with Mino cells (setting [2]) and 1000 to 20000 nM in the experiment on MV-4-11 cells (setting [3]).
Taken in the same sequence, the figures for `C=Cc1ccc(-c2ncc(CNc3cccc4c3C(=O)N(C3CCC(=O)NC3=O)C4=O)s2)cc1` (stereo not shown) [Example 31] were less than 15 nM, less than 60 nM and less than 1000 nM.

The record behind these values is patent US20250270202A1, “SUBSTITUTED 4-AMINOISOINDOLINE COMPOUND, PREPARATION METHOD THEREFOR, PHARMACEUTICAL COMPOSITION THEREOF, AND USE THEREOF” (SHANGHAI INSTITUTE OF MATERIA MEDICA, CHINESE ACADEMY OF …, priority 2022, published 2025).
